Results as given in the NIST ThermoML archive (doi:10.1016/j.tca.2015.08.007).
± gives the expanded uncertainty stated by the source.

| Triple point temperature (Liquid crystal of unknown type) [K] | SMILES | Triple point temperature (Nematic liquid crystal) [K] |
| --- | --- | --- |
| 385.85 ± 2 | CCCCCCCCCCOc1cc(C=NNC(=O)c2ccc(N=Cc3cc(OCCCCCCCCCC)c(OCCCCCCCCCC)c(OCCCCCCCCCC)c3)cc2)cc(OCCCCCCCCCC)c1OCCCCCCCCCC |  |
|  | CCCCCOc1ccc(-c2ccc(C#N)cc2)cc1 [4'-pentoxy-4-cyanobiphenyl] | 339.75 ± 2 |
